# Test results as given in patent publication US8334239B2, “High affinity VEGF-receptor antagonists” (The Board of Regents of the University of Texas System, priority 2007, dated 2012).
# Entries after “also recorded” stand apart in the source; their conditions may differ. Positions of bridges follow the written chain, without caps; N, C: chain ends. Non-standard residues stand in square brackets, D forms with d. Residues, ends and D or L forms follow the SMILES beside them. Chains are numbered I, II in the order given. *: point of attachment. Fluorescein(5-Mal) = O=C1OC2(c3ccc(O)cc3Oc3cc(O)ccc32)c2ccc(N3C(=O)CC(*)C3=O)cc21; Gly(N(CH2)2(3-indolyl)) = O=C(O)CNCCc1c[nH]c2ccccc12; Gly(N-piperonyl) = O=C(O)CNCc1ccc2c(c1)OCO2; Nrpe = C[C@@H](NCC(=O)O)c1ccccc1; NFurfurylGly = O=C(O)CNCc1ccco1; Nleu = CC(C)CNCC(=O)O; Nlys = NCCCCNCC(=O)O; Ahx = NCCCCCC(=O)O; βAla = NCCC(=O)O
# Columns and labels:
# VEGFR2 [1] = molecular target: T1, VEGFR2 (Homo sapiens, UniProt P35968); assay: ELISA-like binding assay, fluoresceinated peptoids on immobilized VEGFR2 extracellular domain; set-up: VEGFR2 extracellular domain (amino acids 1-764 fused to 6× histidine-tagged Fc of human IgG, via the peptide IEGRMD; R&D Systems); linker peptide IEGRMD (internal); Fc of human IgG (C); 6xHis (C); purchased R&D Systems; details: for Fold improved: binding improved compared to the monomer of the series
# Experimental: ELISA based binding assay. White, clear bottom 96-well plates (Corning Inc.) were coated with of 1 μg/ml recombinant human VEGFR2 protein (R&D Systems) using the sensitizing buffer (0.621 g NaHCO3 & 0.275 g Na2CO3 dissolved on 100 ml of ddH2O, pH=9.5) overnight at 4° C. Washed with 3×200 μl of wash buffer 1×PBS with 0.05% Tween-20 and blocked with Startingblock blocking buffer (Pierce). Added 50 μl of serial dilutions of FITC labeled peptoids dissolved in Startingblock blocking buffer to each well & allowed to react for 1 h at room temperature. Washed with 5×200 μl of wash buffer 1×PBS with 0.05% Tween-20 and remaining fluorescence was measured at 520 nm using the plate reader.
# The isolated peptoids are VEGFR2 ligands. Two of the ‘hits’ from this screen, GU40C and GU40E (see FIG. 2) were resynthesized, both as free compounds and with C-terminal Cys (for C-terminal fluorescein tagging via maleimide chemistry), cleaved from the beads and purified to apparent homogeneity by reverse phase HPLC. […] The association of these peptoids with VEGFR2 was evaluated using an ELISA-like assay. A commercially available fusion protein containing the VEGFR2 extracellular domain (amino acids 1-764 fused to 6× histidine-tagged Fc of human IgG, via the peptide IEGRMD; R&D Systems) was plated into 96-well plates and then mixed with various concentrations of […] Fluorescein (FITC)-labeled peptoid. After washing away unbound peptoid, the remaining fluorescence emission signal was measured at 520 nm. In this assay purified VEGFR2 protein was used instead of the whole PAE/KDR cells that over express VEGFR2, in order to confirm these compounds were binding only to the receptor.
# Target sequence in this assay (P35968 20-764): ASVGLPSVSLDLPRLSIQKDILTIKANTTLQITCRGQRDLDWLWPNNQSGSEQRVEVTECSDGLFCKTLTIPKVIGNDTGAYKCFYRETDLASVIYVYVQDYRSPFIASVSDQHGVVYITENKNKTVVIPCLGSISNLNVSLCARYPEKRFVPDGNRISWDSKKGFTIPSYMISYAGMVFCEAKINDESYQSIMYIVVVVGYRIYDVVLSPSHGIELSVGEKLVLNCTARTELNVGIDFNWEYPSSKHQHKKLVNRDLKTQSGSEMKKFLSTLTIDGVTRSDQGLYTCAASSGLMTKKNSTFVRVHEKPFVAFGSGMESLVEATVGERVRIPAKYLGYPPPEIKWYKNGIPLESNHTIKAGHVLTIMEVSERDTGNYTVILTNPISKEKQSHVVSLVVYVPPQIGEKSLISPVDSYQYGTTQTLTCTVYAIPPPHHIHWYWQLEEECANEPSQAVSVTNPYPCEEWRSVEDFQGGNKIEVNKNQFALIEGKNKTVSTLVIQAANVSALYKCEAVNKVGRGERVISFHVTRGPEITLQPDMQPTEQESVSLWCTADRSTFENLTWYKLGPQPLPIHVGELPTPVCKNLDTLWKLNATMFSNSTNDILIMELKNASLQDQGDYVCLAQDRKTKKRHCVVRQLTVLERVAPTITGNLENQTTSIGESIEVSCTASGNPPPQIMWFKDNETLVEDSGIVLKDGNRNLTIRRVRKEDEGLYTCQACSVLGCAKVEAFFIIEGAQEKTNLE
# VEGFR2 [2] = molecular target: T1, VEGFR2; assay: VEGF-induced VEGFR2 autophosphorylation in PAE/KDR cells, Western blot; assay type: cell-based; set-up: allow the library to be screened against the full-length receptor in as natural an environment as possible; host or cells: PAE/KDR (porcine aortic endothelial cells expressing human KDR); details: for agonist activity on VEGFR2 phosphorylation: PAE/KDR cells, Western blot; for effect on VEGF-induced VEGFR2 phosphorylation (in words): monomeric peptoids, 500 μM
# Experimental: Western blots. Experiments were conducted using PAE/KDR cells that were grown on 6-well plates. […] The blots were probed with Phospho-VEGF receptor 2 (Tyr1175) (19A10) rabbit monoclonal or Total VEGFR2 primary antibodies (Cell signaling) and HRP-conjugated secondary antibody (BioRad).
# Functional characterization of the VEGFR2-binding peptoids. GU40C and GU40E were then tested for their ability to modulate VEGFR function. Of course, since the screen simply demanded binding of the peptoid to the receptor, it was not a given that this would be the case. […] Western blot analysis using phospho-VEGFR2-specific antibodies was then employed to monitor receptor activation.
# To do so, the inventors examined the effect of the peptoid on VEGF-induced VEGFR2 autophosphorylation by Western blotting, as described earlier.
# Target sequence in this assay (P35968 20-1356): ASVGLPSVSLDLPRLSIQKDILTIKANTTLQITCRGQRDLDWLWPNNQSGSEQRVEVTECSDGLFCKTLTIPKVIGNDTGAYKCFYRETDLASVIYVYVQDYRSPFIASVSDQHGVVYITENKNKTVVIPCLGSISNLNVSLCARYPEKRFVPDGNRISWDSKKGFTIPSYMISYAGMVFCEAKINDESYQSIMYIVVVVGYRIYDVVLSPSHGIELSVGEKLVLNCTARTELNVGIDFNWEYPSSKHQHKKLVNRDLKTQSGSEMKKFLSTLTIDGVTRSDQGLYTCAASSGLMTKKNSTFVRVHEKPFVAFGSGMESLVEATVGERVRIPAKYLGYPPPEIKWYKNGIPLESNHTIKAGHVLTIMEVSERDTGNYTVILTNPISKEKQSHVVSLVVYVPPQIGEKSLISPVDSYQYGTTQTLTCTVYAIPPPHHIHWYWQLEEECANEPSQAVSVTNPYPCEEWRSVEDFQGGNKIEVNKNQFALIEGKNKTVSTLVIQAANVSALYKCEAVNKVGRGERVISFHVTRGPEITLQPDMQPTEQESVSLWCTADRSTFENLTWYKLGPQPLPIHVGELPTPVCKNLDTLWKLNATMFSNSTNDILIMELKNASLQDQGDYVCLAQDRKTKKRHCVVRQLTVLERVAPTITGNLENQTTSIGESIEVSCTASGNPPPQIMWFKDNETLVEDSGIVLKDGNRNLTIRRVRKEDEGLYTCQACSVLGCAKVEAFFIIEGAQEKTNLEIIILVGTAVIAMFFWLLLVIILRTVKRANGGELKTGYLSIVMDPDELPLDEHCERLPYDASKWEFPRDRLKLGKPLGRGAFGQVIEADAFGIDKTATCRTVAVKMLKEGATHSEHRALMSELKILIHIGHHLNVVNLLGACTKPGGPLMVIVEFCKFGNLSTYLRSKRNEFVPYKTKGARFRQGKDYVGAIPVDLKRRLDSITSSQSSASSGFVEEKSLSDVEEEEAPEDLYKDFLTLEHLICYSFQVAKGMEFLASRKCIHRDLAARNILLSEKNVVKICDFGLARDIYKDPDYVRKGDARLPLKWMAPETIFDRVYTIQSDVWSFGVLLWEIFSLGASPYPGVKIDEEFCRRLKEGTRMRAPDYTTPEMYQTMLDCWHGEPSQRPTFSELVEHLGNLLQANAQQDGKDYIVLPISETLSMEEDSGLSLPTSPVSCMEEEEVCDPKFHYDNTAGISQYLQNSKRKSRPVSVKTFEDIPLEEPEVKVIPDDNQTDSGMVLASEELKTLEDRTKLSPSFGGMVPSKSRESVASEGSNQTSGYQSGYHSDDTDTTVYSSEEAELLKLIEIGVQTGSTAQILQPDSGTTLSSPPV
# GST = assay: ELISA-like binding assay on immobilized GST
# CD105 = molecular target: T2, CD105 (Homo sapiens, UniProt P17813); assay: ELISA-like binding assay on immobilized CD105; details: same ELISA-like assay
# T2 sequence (P17813 26-658): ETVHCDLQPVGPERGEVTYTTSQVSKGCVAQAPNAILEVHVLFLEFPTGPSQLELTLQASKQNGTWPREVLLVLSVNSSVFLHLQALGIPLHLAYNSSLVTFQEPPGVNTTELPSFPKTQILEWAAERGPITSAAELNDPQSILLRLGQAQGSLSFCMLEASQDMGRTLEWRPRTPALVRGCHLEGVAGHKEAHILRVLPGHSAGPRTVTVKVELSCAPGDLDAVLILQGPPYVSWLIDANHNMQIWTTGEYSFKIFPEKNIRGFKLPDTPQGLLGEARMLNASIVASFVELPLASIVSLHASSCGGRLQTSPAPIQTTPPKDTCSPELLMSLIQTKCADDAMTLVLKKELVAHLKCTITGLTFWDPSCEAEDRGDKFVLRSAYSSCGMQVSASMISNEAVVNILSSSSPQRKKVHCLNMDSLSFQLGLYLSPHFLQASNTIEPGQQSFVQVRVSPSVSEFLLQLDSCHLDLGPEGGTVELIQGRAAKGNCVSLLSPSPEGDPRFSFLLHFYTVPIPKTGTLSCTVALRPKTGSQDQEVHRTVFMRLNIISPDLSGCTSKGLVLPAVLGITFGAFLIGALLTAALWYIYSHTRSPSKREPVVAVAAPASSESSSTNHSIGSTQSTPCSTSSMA
Compound,Fold improved (VEGFR2 [1]) [fold],agonist activity on VEGFR2 phosphorylation (VEGFR2 [2]),effect on VEGF-induced VEGFR2 phosphorylation (in words) (VEGFR2 [2]; 1.3 nM VEGF),other results
Avastin: ultra-high affinity anti-VEGF antibody employed clinically [reference compound],,,,"effect on VEGFR2 autophosphorylation (in words) (VEGFR2 [2]; 1 μM, 1.3 nM VEGF): completely blocked"
CC(C)CN(CC(=O)N(CCCCN)CC(=O)N(CCCCN)CC(=O)NCCCCCC(=O)NCCC(=O)N[C@@H](CCCCNC(=O)CN(CCCCN)C(=O)CN(CCCCN)C(=O)CN(CC(C)C)C(=O)CN(CCCCN)C(=O)CN(CC(C)C)C(=O)CN(CCCCN)C(=O)CN(Cc1ccco1)C(=O)CN(CCCCN)C(=O)CNCCc1c[nH]c2ccccc12)C(=O)N[C@@H](CSC1CC(=O)N(c2ccc3c(c2)C(=O)OC32c3ccc(O)cc3Oc3cc(O)ccc32)C1=O)C(N)=O)C(=O)CN(CCCCN)C(=O)CN(CC(C)C)C(=O)CN(CCCCN)C(=O)CN(Cc1ccco1)C(=O)CN(CCCCN)C(=O)CNCCc1c[nH]c2ccccc12 (some centres unmarked) [GU40E4] (I: H-[Gly(N(CH2)2(3-indolyl))][Nlys][NFurfurylGly][Nlys][Nleu][Nlys][Nleu][Nlys][Nlys][Ahx][βAla]KC(Fluorescein(5-Mal))-NH2 / II: H-[Gly(N(CH2)2(3-indolyl))][Nlys][NFurfurylGly][Nlys][Nleu][Nlys][Nleu][Nlys][Nlys]; amide I:12-II:C; N-terminus assumed),9,,,
Nlys-Npip-Nleu-Nlys-Npip-Nlys-Nleu-Nlys-Nlys [GU40B],,None of the peptoids exhibited agonist activity,no effect,
"CC(C)CN(CC(=O)N(CCCCN)CC(=O)N(CCCCN)CC(N)=O)C(=O)CN(CCCCN)C(=O)CN(CC(C)C)C(=O)CN(CCCCN)C(=O)CN(Cc1ccco1)C(=O)CN(CCCCN)C(=O)CNCCc1c[nH]c2ccccc12 [GU40E, Ntrp-Nlys-Nffa-Nlys-Nleu-Nlys-Nleu-Nlys-Nlys] (H-[Gly(N(CH2)2(3-indolyl))][Nlys][NFurfurylGly][Nlys][Nleu][Nlys][Nleu][Nlys][Nlys]-NH2)",,Neither peptoid at any concentration tested evinced agonist activity; also recorded: None of the peptoids exhibited agonist activity,weak antagonists,binding after pre-incubation of immobilized receptor with unlabeled VEGF (VEGFR2 [1]; fluoresceinated peptoid): almost no binding; binding to GST (GST): did not bind detectably; binding to CD105 (CD105): did not bind detectably

# More lines, main results first:
Fold improved (VEGFR2 [1]) [fold],Compound,agonist activity on VEGFR2 phosphorylation (VEGFR2 [2]),effect on VEGF-induced VEGFR2 phosphorylation (in words) (VEGFR2 [2]; 1.3 nM VEGF),other results
11,CC(C)CN(CC(=O)N(CCCCN)CC(=O)N(CC(=O)N(CC(=O)N(CCCCN)CC(=O)N(CC(=O)N(CCCCN)CC(=O)N(CCCCN)CC(=O)NCCCC[C@H](NC(=O)CCNC(=O)CN(CCCCN)C(=O)CN(CCCCN)C(=O)CN(CC(C)C)C(=O)CN(CCCCN)C(=O)CN(Cc1ccc2c(c1)OCO2)C(=O)CN(C(=O)CN(CCCCN)C(=O)CN(CC(C)C)C(=O)CNCCCCN)[C@H](C)c1ccccc1)C(=O)N[C@@H](CSC1CC(=O)N(c2ccc3c(c2)C(=O)OC32c3ccc(O)cc3Oc3cc(O)ccc32)C1=O)C(N)=O)CC(C)C)Cc1ccc2c(c1)OCO2)[C@H](C)c1ccccc1)C(=O)CNCCCCN (some centres unmarked) [GU40C2] (I: H-[Nlys][Nleu][Nlys][Nrpe][Gly(N-piperonyl)][Nlys][Nleu][Nlys][Nlys][βAla]KC(Fluorescein(5-Mal))-NH2 / II: H-[Nlys][Nleu][Nlys][Nrpe][Gly(N-piperonyl)][Nlys][Nleu][Nlys][Nlys]; amide I:11-II:C; N-terminus assumed),,,
2,CC(C)CN(CC(=O)N(CCCCN)CC(=O)N(CCCCN)CC(=O)NCCCC[C@H](NC(=O)CCNC(=O)CN(CCCCN)C(=O)CN(CCCCN)C(=O)CN(CC(C)C)C(=O)CN(CCCCN)C(=O)CN(CC(C)C)C(=O)CN(CCCCN)C(=O)CN(Cc1ccco1)C(=O)CN(CCCCN)C(=O)CNCCc1c[nH]c2ccccc12)C(=O)N[C@@H](CSC1CC(=O)N(c2ccc3c(c2)C(=O)OC32c3ccc(O)cc3Oc3cc(O)ccc32)C1=O)C(N)=O)C(=O)CN(CCCCN)C(=O)CN(CC(C)C)C(=O)CN(CCCCN)C(=O)CN(Cc1ccco1)C(=O)CN(CCCCN)C(=O)CNCCc1c[nH]c2ccccc12 (some centres unmarked) [GU40E2] (I: H-[Gly(N(CH2)2(3-indolyl))][Nlys][NFurfurylGly][Nlys][Nleu][Nlys][Nleu][Nlys][Nlys][βAla]KC(Fluorescein(5-Mal))-NH2 / II: H-[Gly(N(CH2)2(3-indolyl))][Nlys][NFurfurylGly][Nlys][Nleu][Nlys][Nleu][Nlys][Nlys]; amide I:11-II:C; N-terminus assumed),,,
